Values of other authors in publication PMC12087591 (Drug Design, Development and Therapy, 2025).

Tested on: COVID-19
Settings: unvaccinated COVID-19 patients

## CC(C)(C)[C@H](NC(=O)C(F)(F)F)C(=O)N1C[C@H]2[C@@H]([C@H]1C(=O)N[C@H](C#N)C[C@@H]1CCNC1=O)C2(C)C [nirmatrelvir]
  reduction of hospitalization risk: 89%
